“Also recorded” adds a separate entry of the source. Like-named read-outs stand apart in the source and are kept apart here. One block for each compound: values may come before it.
Experiments:
B16F10 melanoma tumor = experiment: In vivo anticancer efficacy, subcutaneous B16F10 melanoma tumor model; design: species or system BALB/c nude mice; settings: four i.v. courses, 3.67 μmol·kg^−1 (TCO-P4 36.7 μmol·kg^−1), n = 5
Experimental: Tumor-bearing mice were established by subcutaneously injecting a suspension of 5 × 10^5 B16F10 cells per mouse into the front flank of each nude mouse. When tumor volume reached 50−70 mm^3, the animals were randomly divided into five groups (n = 5). The mice were administered different compounds suspended in PBS via the tail vein every 3 days for a total of four times.
The mice underwent four treatment courses on day 0, day 3, day 6, and day 9. Tumor size and body weight were measured every day. Tumor volume was calculated via the following formula: V = 1/2 × (minor axis) × (major axis)[2].
After 12 days, the mice were sacrificed and dissected to obtain tumor tissues and main organs, including heart, liver, spleen, lung, and kidney. Subsequently, all tissues were fixed in a 4% paraformaldehyde solution, routinely paraffin-embedded and sectioned, and then stained with hematoxylin and eosin, as well as using TdT-mediated dUTP nick-end labeling (TUNEL) for subsequent pathological analysis. TUNEL-positive cells appeared fluorescent green, representing the apoptosis of tumor cells (nuclei were fluorescent blue, stained with DAPI).
13. In vivo anticancer efficacy […]
13.2 Calculation of the tumor growth inhibition values (TGI)
Tumor growth inhibition values (TGI) were calculated using the following formula: TGI (%) = (1 − RTVtreatment/
RTVcontrol)*100. RTV refers to relative tumor volume, representing the ratio of the volume at the end of treatment to the
volume at the beginning of treatment. […]

[1] = assay type: physicochemical; settings: for intact (%) under 10 mM GSH: 520 nm HPLC–MS (PyTz UV–Vis)
Experimental: All tetrazine compounds were diluted to a concentration of 50 μM or 2 μM using PBS (10% DMSO, pH 7.4). A stock solution of GSH (400 mM in PBS) was then added to achieve a final concentration of 10 mM. The mixture was homogenized and incubated at 37 °C for 12 h. The stability of the compounds (including all peptide conjugates and PmTz) was assessed by measuring the decrease in peak area at 520 nm (with the initial peak area at 0 min defined as 100%). This measurement was monitored by HPLC–MS. Similarly, the stability of PyTz was determined by monitoring the decrease in peak intensity at 520 nm using UV–Vis. Statistical analysis was performed on data from three replicates to calculate the mean and standard deviation. […]
Response 1: We appreciate your comment. We conducted stability tests on RGD-Dox and RGD-SN-38 in 10 mM GSH at a concentration of 2 μM, which is below the critical micelle concentrations. After incubating at 37 °C for 12 hours, we observed that 95% of RGD-Dox and 85% of RGD-SN-38 remained intact. This stability is slightly less than […]
the observed stability is intrinsic to the peptide-drug conjugates, with a slight enhancement due to micelle […]
concentrations, after 12 hours of incubation at 37 °C (Figure S46). […]
intrinsic to the PDCs, with a slight enhancement by micelle formation.
Details of these experiments have been included in the Supplementary Information (Page S42), as outlined below:
RGD-Dox and RGD-SN-38 were diluted to a concentration of 2 μM using PBS (10% DMSO, pH 7.4). A stock solution of GSH (400 mM in PBS) was then added to achieve a final concentration of 10 mM. The mixture was homogenized and incubated at 37 °C for 12 hours. Stability was assessed by measuring the decrease in peak area at 520 nm (with the initial peak area at 0 min defined as 100%). This measurement was monitored by HPLC–MS. Statistical analysis was performed on data from three replicates to calculate the mean and standard deviation.

MDA-MB-231 cells = experiment: Cytotoxicity (CCK8, 48 h) of drugs, PDCs, activable-Drugs and TCO, MDA-MB-231; assay type: cell-based, Human; settings: 200 μM TCO
HepG2 cells = experiment: Cytotoxicity (CCK8, 48 h) of drugs, PDCs, activable-Drugs and TCO, HepG2; settings: 200 μM TCO
B16F10 cells = experiment: Cytotoxicity (CCK8, 48 h) of drugs, PDCs, activable-Drugs and TCO, B16F10; assay type: cell-based, Mouse; settings: 200 μM TCO
SKOV3 cells = experiment: Cytotoxicity (CCK8, 48 h) of drugs, PDCs, activable-Drugs and TCO, SKOV3; assay type: cell-based, Human; settings: 200 μM TCO
LX2 cells = experiment: Cytotoxicity (CCK8, 48 h) of drugs, PDCs, activable-Drugs and TCO, LX2; assay type: cell-based, Human; settings: 200 μM TCO
U87 cells = experiment: Cytotoxicity (CCK8, 48 h) of drugs, PDCs, activable-Drugs and TCO, U87; assay type: cell-based, Human; settings: 200 μM TCO
[2] = 1 h, Data 1, 50 μM, PBS pH 7.4, 10% DMSO, 37 °C
[3] = 1 h, Data 2, 50 μM, PBS pH 7.4, 10% DMSO, 37 °C
[4] = 1 h, Data 3, 50 μM, PBS pH 7.4, 10% DMSO, 37 °C

Structure (SMILES): COCCOCCOCCOCCC(=O)NCCC1(O)CC/C=C/CCC1 (racemic) [TCO-P4]
tumor growth / inhibition in words (B16F10 melanoma tumor): did not exhibit significant tumor inhibition; also recorded: rapid tumor growth

intact (%) under 10 mM GSH [1, 2]: 86.4895% | intact (%) under 10 mM GSH [1, 3]: 82.9483% | intact (%) under 10 mM GSH [1, 4]: 87.2017% | intact (%) under 10 mM GSH ([1]; 3 h, Data 1, 50 μM, PBS pH 7.4, 10% DMSO, 37 °C): 75.526% | intact (%) under 10 mM GSH ([1]; 3 h, Data 2, 50 μM, PBS pH 7.4, 10% DMSO, 37 °C): 72.3872% | intact (%) under 10 mM GSH ([1]; 3 h, Data 3, 50 μM, PBS pH 7.4, 10% DMSO, 37 °C): 74.6204% | intact (%) under 10 mM GSH ([1]; 5 h, Data 1, 50 μM, PBS pH 7.4, 10% DMSO, 37 °C): 63.0897% | intact (%) under 10 mM GSH ([1]; 5 h, Data 2, 50 μM, PBS pH 7.4, 10% DMSO, 37 °C): 68.3168% | intact (%) under 10 mM GSH ([1]; 5 h, Data 3, 50 μM, PBS pH 7.4, 10% DMSO, 37 °C): 70.9327% | intact (%) under 10 mM GSH ([1]; 8 h, Data 1, 50 μM, PBS pH 7.4, 10% DMSO, 37 °C): 50.7674% | intact (%) under 10 mM GSH ([1]; 8 h, Data 2, 50 μM, PBS pH 7.4, 10% DMSO, 37 °C): 52.9065% | intact (%) under 10 mM GSH ([1]; 8 h, Data 3, 50 μM, PBS pH 7.4, 10% DMSO, 37 °C): 52.3167% | remained intact with 10 mM GSH ([1]; 12 h, 37 °C, 50 μM, PBS pH 7.4, 10% DMSO, HPLC–MS peak area 520 nm, mean of n = 3): 38% | intact (%) under 10 mM GSH ([1]; 12 h, Data 1, 50 μM, PBS pH 7.4, 10% DMSO, 37 °C): 38.6932% | intact (%) under 10 mM GSH ([1]; 12 h, Data 2, 50 μM, PBS pH 7.4, 10% DMSO, 37 °C): 39.3861% | intact (%) under 10 mM GSH ([1]; 12 h, Data 3, 50 μM, PBS pH 7.4, 10% DMSO, 37 °C): 35.5445%
Structure (SMILES): Cc1nnc(-c2ncccn2)nn1 [PmTz, pyrimidine tetrazine, reference compound]

intact (%) under 10 mM GSH ([1]; 0.5 h, Data 1, 50 μM, PBS pH 7.4, 10% DMSO, 37 °C): 53% | intact (%) under 10 mM GSH ([1]; 0.5 h, Data 2, 50 μM, PBS pH 7.4, 10% DMSO, 37 °C): 43.8% | intact (%) under 10 mM GSH ([1]; 0.5 h, Data 3, 50 μM, PBS pH 7.4, 10% DMSO, 37 °C): 45% | intact (%) under 10 mM GSH [1, 2]: 19% | intact (%) under 10 mM GSH [1, 3]: 19.7% | intact (%) under 10 mM GSH [1, 4]: 15.4% | intact (%) under 10 mM GSH ([1]; 1.5 h, Data 1, 50 μM, PBS pH 7.4, 10% DMSO, 37 °C): 1.3% | intact (%) under 10 mM GSH ([1]; 1.5 h, Data 2, 50 μM, PBS pH 7.4, 10% DMSO, 37 °C): 4% | intact (%) under 10 mM GSH ([1]; 1.5 h, Data 3, 50 μM, PBS pH 7.4, 10% DMSO, 37 °C): 2.9% | time to degradation with 10 mM GSH ([1]; pH 7.4): ≤ 3 h
Structure (SMILES): c1ccc(-c2nnc(-c3ccccn3)nn2)nc1 [PyTz, reference compound]

Structure (SMILES): C1=C/CCCCCC/1 [TCO, trans-cyclooctene]
MDA-MB-231 (Cell viability%) (MDA-MB-231 cells; Data 1): 96.0832% | MDA-MB-231 (Cell viability%) (MDA-MB-231 cells; Data 2): 97.4309% | MDA-MB-231 (Cell viability%) (MDA-MB-231 cells; Data 3): 97.8186% | HepG2 (Cell viability%) (HepG2 cells; Data 1): 94.3888% | HepG2 (Cell viability%) (HepG2 cells; Data 2): 93.5935% | HepG2 (Cell viability%) (HepG2 cells; Data 3): 92.7384% | B16F10 (Cell viability%) (B16F10 cells; Data 1): 97.5688% | B16F10 (Cell viability%) (B16F10 cells; Data 2): 97.508% | B16F10 (Cell viability%) (B16F10 cells; Data 3): 97.9504% | SKOV3 (Cell viability%) (SKOV3 cells; Data 1): 93.7367% | SKOV3 (Cell viability%) (SKOV3 cells; Data 2): 92.4982% | SKOV3 (Cell viability%) (SKOV3 cells; Data 3): 93.3583% | LX2 (Cell viability%) (LX2 cells; Data 1): 99.7395% | LX2 (Cell viability%) (LX2 cells; Data 2): 98.5462% | LX2 (Cell viability%) (LX2 cells; Data 3): 97.8594% | U87 (Cell viability%) (U87 cells; Data 1): 96.2952% | U87 (Cell viability%) (U87 cells; Data 2): 96.092% | U87 (Cell viability%) (U87 cells; Data 3): 96.4775%

Reference: PMC10987521, “An all-in-one tetrazine reagent for cysteine-selective labeling and bioorthogonal activable prodrug construction” (Nature Communications, 2024)
